In patent publication US12673039B2, “Methods of inducing autophagy using coumarin derivatives and related compounds” (Buck Institute for Research on Aging, priority 2019, dated 2026):

Assays:
TFEB = TFEB activation screen, % activation/control at 24 and 48 hrs (Table 1); format: cell-based, human; conditions: Homo sapiens, 24 h
Description: FIG. 25, panels A-B::AIC106 identified as a lead compound in a TFEB-transcription based screen. Panel A) Rat Neuronal N27 cells were transfected with a vector construct driving expression of secreted-Gaussia luciferase (Sec-Gaussia) in control of 2 kb human TFEB promoter. Next day, cells were seeded into 96-well cell culture plate and exposed to compounds (30 μM) from natural product library (NPL-640) or DMSO-control. After 24 and 48 hours of compound treatment supernatant from the cells was collected and TFEB promoter activity determined by quantifying luciferase activity. Panel B) Effects of AIC106 treatment on HLH-30 expression after 24 hours treatment were determined by immunoblot against GFP in young adult stage of GFP-tagged HLH-30 strain (MAH235) following total protein extraction.
It was discovered that small structural alterations in the C1 compound can have significant effects on the degree of TFEB activation (see, e.g., FIG. 17) the screening systems described herein identified a number of structures related to C1 that similarly induce TFEB.
In vitro drug screening studies. […] We utilized for these studies a 3000 compound natural product derivative library (Timtec, Newark, DE) in […] transfected with a sensitive TFEB promotor-Gaussian luciferase construct. […] C1 is a coumarin-related compound, part of a family of natural benzopyrones found in many edible plants.
To identify novel transcriptional inducers of TFEB, we transfected rat neuronal N27 cells with a vector driving expression of secreted-luciferase under control of the human TFEB promoter. […] AIC106 belongs to a family of coumarin compounds containing an active benzopyrone ring.

DAF-12 = target: T1, DAF-12 (Caenorhabditis elegans, UniProt G5EFF5); assay: Mammalian one-hybrid DAF-12 activity assay (HEK293T); format: cell-based, human; conditions: compound alone
T1 construct: expressed in transfected cells; host or cells: HEK293T
T1 sequence (G5EFF5 516-753 limits assumed): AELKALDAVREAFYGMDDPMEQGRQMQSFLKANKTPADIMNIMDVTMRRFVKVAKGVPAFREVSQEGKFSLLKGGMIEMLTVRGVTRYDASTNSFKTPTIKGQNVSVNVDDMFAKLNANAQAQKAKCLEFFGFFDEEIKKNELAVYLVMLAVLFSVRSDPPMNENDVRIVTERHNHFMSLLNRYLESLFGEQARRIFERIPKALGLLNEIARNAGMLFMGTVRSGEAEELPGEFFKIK
Description: FIG. 10 illustrates that coumarin 106 (“C1”, “AIC106”) inhibits induction of the worm FXR homologue DAF-12. The ability of C1 (10 μM) to inhibit activation of the FXR worm homologue DAF-12 by its ligand dafachronic acid (Df acid); values are fold activity induction versus untreated controls; ****p<0.01 versus GW; **p<0.05 versus GW.
FIG. 22, panels A-H: AIC106-induced HLH-30 expression is mediated by the nuclear hormone receptor DAF-12. Panel A) The upstream promoter region (2 kB) of hlh-30 was analyzed by JASPAR CORE database to determine DAF-12 binding sites (1: SEQ ID NO:1, 2: 1: SEQ ID NO:2, 3: SEQ ID NO:3, 4: SEQ ID NO:4, 5: SEQ ID NO:5, 6: SEQ ID NO:6, 7: SEQ ID NO:7, 8: SEQ ID NO:8, 9: SEQ ID NO:9, 10: SEQ ID NO:10, 11: SEQ ID NO:11, 12: SEQ ID NO:12). Panel B) Relative fold change in mRNA of hlh-30 compared to DMSO-control was quantified using qRT-PCR in young adult wild-type N2 and daf-12(rh61rh411) worms post-24 hours treatment with AIC106. [N=3 independent experiments (mean±SD). **p<0.01, by one-way ANOVA with Sidak's multiple comparisons test]. Panel C) Effects of AIC106 on DAF-12 activity was determined in a mammalian one-hybrid assay by quantifying changes in the luciferase activity of DAF-12 ligand (dafachronic acid, DA) induced treatment. [N=3 independent experiments (mean±SD). *p<0.05 **p<0.01 and ***p<0.001, by one-way ANOVA with Tukey's multiple comparisons test]. Panel D) Schematic diagram showing that addition of AIC106 or inhibition of DAF-12 ligand synthesis, which leads to un-liganded DAF-12 may result in enhanced HLH-30 expression. Panel E) Dafadine-A (DFA), a specific inhibitor of key enzyme required for synthesis of DAF-12 ligand induces HLH-30 expression. Immunoblot for GFP was performed on protein lysate of HLH-30; GFP (MAH235) young adult worms treated with DFA or DMSO-control for 24 hours. Panel F) Protection against mitochondrial toxin (FCCP) was determined by quantifying survival of young adult worms treated 24 hours with DFA or DMSO-control. [N=3 independent experiments (mean±SD). **p<0.01, by two-way ANOVA with Tukey's multiple comparisons test]. Panel G) Motor function in day-7 NL5901 worms were quantified by scoring number of thrashes for an individual worm over the period of 30 seconds (dots) in DFA and DMSO-control treatment. [N=3 independent experiments (mean±SD). **p<0.01, by unpaired t-test] […] [N=3 independent experiments (mean±SD). *p<0.05, by one-way ANOVA with Tukey's multiple comparisons test].
FIG. 29, panels A-C: AIC106 modulates DAF-12 activity. […] Luciferase activity was measured to quantify DAF-12 activity. Panel C) Dose dependent increase in DAF-12 activity after treatment with known DAF-12 ligand, dafachronic acid (DA) was determined by quantifying luciferase activity. […]

Question: For `O=C(O)c1ccccc1-c1c2ccc(=O)cc-2oc2cc(O)ccc12` [A2], which activity at 30 µM (TFEB) is on record?
Answer: 293%

Question: `O=c1oc2cc(O)ccc2c(Cc2ccc(Cl)cc2)c1-c1ccccc1` [A3] was tested. Which activity at 30 µM (TFEB) did it give?
Answer: 324%

Question: With `Cc1cc2oc(=O)c(-c3ccc(Cl)cc3Cl)c(-c3ccccc3)c2cc1Cl` [A4] as the molecule, how does the activity at 30 µM (TFEB) read?
Answer: 361%

Question: For `Cc1cc2oc(=O)c(-c3ccccc3)c(-c3ccccc3)c2cc1Cl` [A5], which activity at 30 µM (TFEB) is on record?
Answer: 62.3%

Question: `Cc1cc2oc(=O)c(-c3ccccc3Cl)c(-c3ccccc3)c2cc1Cl` [A6] was tested. Which activity at 30 µM (TFEB) did it give?
Answer: 76.6%

Question: How did the activity at 30 µM (TFEB) turn out when `O=c1oc2c(Br)cc(Cl)cc2c(-c2ccccc2)c1-c1ccc(Br)cc1` [B2] was run?
Answer: 331%

Question: `O=c1oc2ccccc2c(-c2ccccc2)c1-c1ccc(Cl)cc1Cl` [B3] was tested. Which activity at 30 µM (TFEB) did it give?
Answer: 338%

Question: With `Cc1ccc2c(-c3ccccc3)c(-c3ccc(Br)cc3)c(=O)oc2c1` [B4] as the molecule, how does the activity at 30 µM (TFEB) read?
Answer: 390%

Question: How did the activity at 30 µM (TFEB) turn out when `O=c1oc2ccc(Cl)cc2c(-c2ccccc2)c1-c1ccc(Cl)cc1Cl` [B5] was run?
Answer: 83.2%

Question: With `Cc1ccc2oc(=O)c(-c3ccc(Cl)cc3Cl)c(-c3ccc(Cl)cc3)c2c1` [B6] as the molecule, how does the activity at 30 µM (TFEB) read?
Answer: 91.2%

Question: Which activity at 30 µM (TFEB) does the source give for `O=c1oc2cc(O)ccc2c(-c2ccccc2)c1-c1ccccc1` [C2] here?
Answer: 311%

Question: `O=c1oc2cc(O)cc(-c3ccccc3)c2cc1-c1ccccc1Cl` [C3 ST081388] was tested. Which activity at 30 µM (TFEB) did it give?
Answer: 317%

Question: How did the activity at 30 µM (TFEB) turn out when `CC(C)(C)OC(=O)C1Cc2cc3c4c(c2OC1=O)CCCN4CCC3` (centres unmarked) [C3 ST083673] was run?
Answer: 328%

Question: How did the activity at 30 µM (TFEB) turn out when `O=c1oc2ccc(Br)cc2c(-c2ccc(Cl)cc2)c1-c1ccc(Cl)cc1Cl` [C4] was run?
Answer: 432%

Question: With `O=c1oc2c(Cl)cc(Cl)cc2c(-c2ccccc2)c1-c1ccccc1` [C5] as the molecule, how does the activity at 30 µM (TFEB) read?
Answer: 87.2%

Question: `O=c1oc2c(Cl)cc(Cl)cc2c(-c2ccc(Cl)cc2)c1-c1ccccc1` [C6] was tested. Which activity at 30 µM (TFEB) did it give?
Answer: 104%

Question: `O=C(O)C1Cc2cc3c4c(c2CC1=O)CCCN4CCC3` (centres unmarked) [D2] was tested. Which activity at 30 µM (TFEB) did it give?
Answer: 336%

Question: How did the activity at 30 µM (TFEB) turn out when `COc1ccc(-c2c(-c3ccccc3)c3ccc(O)cc3oc2=O)c(Cl)c1OC` [D3] was run?
Answer: 381%

Question: For `O=c1oc2ccc(Cl)cc2c(-c2ccccc2)c1-c1ccccc1Cl` [D4], which activity at 30 µM (TFEB) is on record?
Answer: 369%

Question: Which activity at 30 µM (TFEB) does the source give for `Cc1cc2oc(=O)c(-c3ccc(Cl)cc3)c(-c3ccc(Cl)cc3)c2cc1Cl` [D5] here?
Answer: 103%

Question: Which activity at 30 µM (TFEB) does the source give for `Cc1cc2oc(=O)c(-c3ccc(Cl)cc3Cl)c(-c3ccc(Cl)cc3)c2cc1Cl` [D6] here?
Answer: 360%

Question: With `O=c1oc2ccc(Br)cc2c(-c2ccccc2)c1-c1ccccc1Cl` [E3] as the molecule, how does the activity at 30 µM (TFEB) read?
Answer: 347%

Question: `C=CCOc1ccc2c(-c3ccccc3)c(-c3cccc(Br)c3)c(=O)oc2c1` [E4] was tested. Which activity at 30 µM (TFEB) did it give?
Answer: 400%

Question: For `O=c1oc2ccc(Br)cc2c(-c2ccccc2)c1-c1ccc(Br)cc1` [E5], which activity at 30 µM (TFEB) is on record?
Answer: 92.5%

Question: Which activity at 30 µM (TFEB) does the source give for `O=CC1Cc2cc3c4c(c2OC1=O)CCCN4CCC3` (centres unmarked) [E6] here?
Answer: 367%

Question: Which activity at 30 µM (TFEB) does the source give for `COc1ccc(-c2c(-c3ccccc3)c3ccc(O)cc3oc2=O)c(Cl)c1` [F2] here?
Answer: 341%

Question: With `O=c1oc2ccc(Br)cc2c(-c2ccccc2Cl)c1-c1cccc(Cl)c1` [F3] as the molecule, how does the activity at 30 µM (TFEB) read?
Answer: 302%

Question: How did the activity at 30 µM (TFEB) turn out when `O=c1oc2ccc(Br)cc2c(-c2ccccc2)c1-c1cccc(Cl)c1` [F4] was run?
Answer: 365%

Question: Which activity at 30 µM (TFEB) does the source give for `O=c1oc2c(Cl)cc(Cl)cc2c(-c2ccccc2)c1-c1ccc(Cl)cc1Cl` [F5] here?
Answer: 105%

Question: `O=c1oc2cc(O)ccc2c(Cc2ccccc2)c1-c1ccccc1` [G2] was tested. Which activity at 30 µM (TFEB) did it give?
Answer: 341%

Question: Which activity at 30 µM (TFEB) does the source give for `O=c1oc2ccc(Br)cc2c(-c2ccc(Cl)cc2)c1-c1ccc(Cl)cc1` [G3] here?
Answer: 365%

Question: How did the activity at 30 µM (TFEB) turn out when `Cc1cc2oc(=O)c(-c3ccc(Br)cc3)c(-c3ccccc3)c2cc1Cl` [G4] was run?
Answer: 390%

Question: `O=c1oc2ccccc2c(-c2ccccc2)c1-c1cccc(Br)c1` [G5] was tested. Which activity at 30 µM (TFEB) did it give?
Answer: 65.1%

Question: With `O=c1oc2cc(O)ccc2c(-c2ccccc2)c1-c1cccc(Cl)c1` [H2] as the molecule, how does the activity at 30 µM (TFEB) read?
Answer: 334%

Question: `O=c1oc2ccc(Cl)cc2c(-c2ccc(Cl)cc2)c1-c1ccc(Cl)cc1` [H3] was tested. Which activity at 30 µM (TFEB) did it give?
Answer: 361%

Question: For `O=c1oc2ccccc2c(-c2ccccc2)c1-c1ccccc1` [H4], which activity at 30 µM (TFEB) is on record?
Answer: 346%

Question: `Cc1ccc2oc(=O)c(-c3ccccc3)c(-c3ccccc3)c2c1` [H5] was tested. Which activity at 30 µM (TFEB) did it give?
Answer: 70.1%

Question: With dafachronic acid [reference compound] as the molecule, how does the “DAF-12 activity (luciferase)” value (DAF-12) read?
Answer: increase DAF-12 activity in a dose dependent manner
